Laboratory results taken from BigSolDB 2.1.

COC(=O)[C@@H](N)Cc1c[nH]c2ccccc12.Cl
solubility (mole fraction)
Settings | 283.2 K | 288.2 K | 293.2 K | 298.2 K | 303.2 K | 308.2 K | 313.2 K | 318.2 K | 323.2 K
in 2-butanone | 0.000254 | 0.000295 | 0.00034 | 0.000401 | 0.000495 | 0.00058 | 0.000748 | 0.001 | 0.00141
in acetone | 0.000289 | 0.000374 | 0.000489 | 0.000605 | 0.000793 | 0.00104 | 0.00144 | 0.00219 | 0.00343
in acetonitrile | 3.75e-05 | 4.38e-05 | 5.24e-05 | 6.55e-05 | 8.15e-05 | 0.000101 | 0.000123 | 0.000147 | 0.000183
in ethanol | 0.00608 | 0.00634 | 0.00683 | 0.00737 | 0.00812 | 0.00885 | 0.00966 | 0.0108 | 0.012
in ethyl acetate | 4.01e-05 | 4.86e-05 | 5.9e-05 | 7.36e-05 | 0.000101 | 0.000134 | 0.000174 | 0.000226 | 0.000296
in isobutanol | 0.00135 | 0.00142 | 0.0015 | 0.00172 | 0.00205 | 0.00245 | 0.00281 | 0.00326 | 0.00374
in isopropanol | 0.00109 | 0.00122 | 0.00135 | 0.00157 | 0.00176 | 0.00195 | 0.0022 | 0.00241 | 0.00273
in methanol | 0.0291 | 0.0301 | 0.0317 | 0.0334 | 0.0354 | 0.0379 | 0.0403 | 0.0437 | 0.0478
in n-butanol | 0.00221 | 0.00231 | 0.00247 | 0.00263 | 0.00281 | 0.00304 | 0.00327 | 0.0035 | 0.00385
in n-propanol | 0.00303 | 0.00322 | 0.00348 | 0.00376 | 0.00401 | 0.00431 | 0.00465 | 0.00512 | 0.00574
in sec-butanol | 0.0013 | 0.00135 | 0.00149 | 0.00165 | 0.00183 | 0.00206 | 0.00227 | 0.00251 | 0.00296
in water | 0.00839 | 0.00951 | 0.0107 | 0.0125 | 0.015 | 0.0175 | 0.02 | 0.024 | 0.0278
